Measurements reported in patent US20250144067A1, “PERSONALIZED STARVATION THERAPY FOR CANCER” (Faeth Therapeutics, Inc., priority 2021, published 2025).
Structures can show the parent of a compound that is named as a salt. Where two headings read alike, the source gives them in different places.

Key:
[1] = system: NCI-H292 lung cancer cells; test: FDA drug screening, complete media vs cholesterol-free media without statin (TABLE 1); format: cell-based, human
[2] = system: NCI-H292 lung cancer cells; test: FDA drug screening, complete media vs cholesterol-free media with simvastatin (TABLE 2); format: cell-based, human
[3] = Complete minus Cholesterol-free, […]
[4] = NCI-H292 cells, FDA drug library screen, cholesterol-free media without statin
[5] = NCI-H292 cells, FDA drug library screen, complete media
[6] = NCI-H292 cells, drug in cholesterol-free media with simvastatin 0.04 μM
[7] = NCI-H292 cells, drug in complete media
[8] = complete media vs cholesterol-free media + simvastatin (0.04 μM), […]
[9] = Complete minus Cholesterol-free, >0 enhanced anti-cancer activity, about 0 neutral, <0 antagonist
[10] = NCI-H292 cells, cholesterol-free media without statin
[11] = NCI-H292 cells, FDA drug library screen, cholesterol-free media with simvastatin 0.04 μM
[12] = complete media minus cholesterol-free media + simvastatin, >0 enhanced anti-cancer activity, about 0 neutral, <0 antagonist
[13] = NCI-H292 cells, cholesterol-free media without statin, FDA drug library screen
[14] = NCI-H292 cells, complete media, FDA drug library screen
[15] = complete vs cholesterol-free media, >0 enhanced anti-cancer activity, about 0 neutral, <0 antagonist
[16] = NCI-H292 cells, cholesterol-free media with simvastatin 0.04 μM, FDA drug library screen (TABLE 2)
[17] = NCI-H292 cells, complete media, FDA drug library screen (TABLE 2)
[18] = complete media minus cholesterol-free media + simvastatin (0.04 μM), >0 enhanced anti-cancer activity, about 0 neutral, <0 antagonist
[19] = NCI-H292 cells, cholesterol-free media with simvastatin 0.04 μM, cell growth value in FDA drug screen
[20] = NCI-H292 cells, complete media, cell growth value in FDA drug screen
[21] = NCI-H292 cells, FDA library drug in cholesterol-free media with simvastatin 0.04 μM
[22] = NCI-H292 cells, FDA library drug in complete media
[23] = complete media vs cholesterol-free media + simvastatin (0.04 μM), >0 enhanced anti-cancer activity, about 0 neutral, <0 antagonist
[24] = Complete minus Cholesterol-free, greater than 0 enhanced anti-cancer activity, about 0 neutral, below 0 antagonist
[25] = Complete minus Cholesterol-free, greater than 0 enhanced anti-cancer activity, about 0 neutral, below 0 antagonists
[26] = NCI-H292 cells in complete media

O.Sc1ncnc2nc[nH]c12 [6-Mercaptopurine hydrate]
Difference [1, 3]: −0.11 | Cholesterol-free [1, 4]: 0.3886 | Complete [1, 5]: 0.2796 | Cholesterol-free media + simvastatin (0.04 μM) [2, 6]: 0.9123 | Complete Media [2, 7]: 0.7458 | Difference [2, 8]: −0.17

C[C@H]1C[C@@H]2[C@H]([C@@H](O)C[C@@]3(C)[C@H]2CC[C@]3(O)C(=O)CO)[C@@]2(C)C=CC(=O)C=C12 [Methylprednisolone]
Difference [1, 9]: −0.22 | Cholesterol-free [1, 10]: 0.8356 | Complete ([1]; NCI-H292 cells, complete media): 0.6178 | Cholesterol-free media + simvastatin (0.04 μM) [2, 11]: 1.016 | Complete Media [2, 5]: 1.212 | Difference [2, 12]: 0.20

CC[C@]12CCCN3CCc4c(n(c5ccccc45)[C@@](O)(C(=O)OC)C1)[C@@H]32 [Vincamine]
Cholesterol-free [1, 13]: 0.6922 | Complete [1, 14]: 1.178 | Difference [1, 15]: 0.49 | Cholesterol-free media + simvastatin (0.04 μM) [2, 16]: 0.8199 | Complete Media [2, 17]: 0.7686 | Difference [2, 18]: −0.05

O=c1[nH]c(=O)n(C2CCCO2)cc1F (stereo not drawn) [Tegafur]
Difference [1, 9]: −0.25 | Cholesterol-free [1, 10]: 0.9682 | Complete ([1]; NCI-H292 cells, complete media): 0.7137 | Cholesterol-free media + simvastatin (0.04 μM) [2, 11]: 1.002 | Complete Media [2, 5]: 1.263 | Difference [2, 12]: 0.26

Cc1cccc(C(C)c2cnc[nH]2)c1C (stereo not drawn) [Medetomidine (hydrochloride)]
Cholesterol-free [1, 10]: 1.452 | Complete ([1]; NCI-H292 cells, complete media): 1.139 | Difference ([1]; complete vs cholesterol-free media, greater than 0 enhanced anti-cancer activity, about 0 neutral, below 0 antagonists): −0.31 | Cholesterol-free media + simvastatin (0.04 μM) [2, 19]: 0.8752 | Complete Media [2, 20]: 0.9447 | Difference [2, 12]: 0.07

OCCOc1ccc(/C(=C(/CCCl)c2ccccc2)c2ccccc2)cc1 [Ospemifene]
Cholesterol-free [1]: 1.029 | Complete [1]: 1.255 | Difference [1]: 0.23 | Cholesterol-free media + simvastatin (0.04 μM) [2]: 1.909 | Complete Media [2]: 1.222 | Difference [2]: −0.69

Acetylspiramycin
Difference [1, 3]: −0.20 | Cholesterol-free [1, 10]: 1.42 | Complete ([1]; NCI-H292 cells, complete media): 1.224 | Cholesterol-free media + simvastatin (0.04 μM) [2, 11]: 1.237 | Complete Media [2, 5]: 1.1 | Difference [2, 8]: −0.14

CC(=C(CCO)SSCC1CCCO1)N(C=O)Cc1cnc(C)nc1N (stereo in doubt) [Fursultiamine]
Cholesterol-free [1]: 1.191 | Complete [1]: 1.162 | Difference [1]: −0.03 | Cholesterol-free media + simvastatin (0.04 μM) [2]: 1.842 | Complete Media [2]: 1.268 | Difference [2]: −0.57

CCc1cc2c(cc1N1CCC(N3CCOCC3)CC1)C(C)(C)c1[nH]c3cc(C#N)ccc3c1C2=O [Alectinib]
Difference [1, 9]: −0.21 | Cholesterol-free [1, 10]: 1.125 | Complete ([1]; NCI-H292 cells, complete media): 0.9146 | Cholesterol-free media + simvastatin (0.04 μM) [2, 21]: 1.385 | Complete Media [2, 22]: 1.02 | Difference [2, 23]: −0.37

COC1=C[C@@H]2[C@@H]3Cc4ccc(OC)c(O)c4[C@]2(CCN3C)CC1=O [Sinomenine hydrochloride]
Cholesterol-free [1, 13]: 1.217 | Complete [1, 14]: 1.524 | Difference ([1]; complete vs cholesterol-free media, […]): 0.31 | Cholesterol-free media + simvastatin (0.04 μM) [2, 6]: 1.006 | Complete Media [2, 7]: 0.7844 | Difference [2, 8]: −0.22

Nc1nc2ccc(OC(F)(F)F)cc2s1 [Riluzole]
Difference [1, 9]: 0.02 | Cholesterol-free [1, 13]: 1.015 | Complete [1, 14]: 1.033 | Cholesterol-free media + simvastatin (0.04 μM) [2, 11]: 0.9966 | Complete Media [2, 5]: 1.259 | Difference [2, 12]: 0.26

CC(=O)[C@@]1(O)CC[C@H]2[C@@H]3C[C@H](C)C4=CC(=O)C=C[C@]4(C)[C@@]3(F)[C@@H](O)C[C@@]21C [Fluorometholone]
Difference [1, 24]: −0.08 | Cholesterol-free [1, 4]: 1.249 | Cholesterol-free media + simvastatin (0.04 μM) [2, 6]: 0.7423 | Complete Media [2, 7]: 0.5602 | Difference [2, 23]: −0.18

CNNCc1ccc(C(=O)NC(C)C)cc1 [Procarbazine (Hydrochloride)]
Difference [1, 25]: −0.50 | Complete [1, 26]: 1.119 | Cholesterol-free media + simvastatin (0.04 μM) [2, 11]: 0.7556 | Complete Media [2, 5]: 1.193 | Difference [2, 12]: 0.44

CN(Cc1cc(Br)cc(Br)c1N)C1CCCCC1 [Bromhexine (hydrochloride)]
Difference [1, 24]: −0.09 | Cholesterol-free [1, 4]: 1.344 | Complete [1, 5]: 1.254 | Cholesterol-free media + simvastatin (0.04 μM) [2, 21]: 1.081 | Complete Media [2, 22]: 0.7932 | Difference [2, 23]: −0.29

O=C(O)CCC(=O)Nc1ccc(S(=O)(=O)Nc2nccs2)cc1 [Succinylsulfathiazole]
Difference [1, 9]: 0.03 | Cholesterol-free [1, 13]: 0.852 | Complete [1, 14]: 0.8836 | Cholesterol-free media + simvastatin (0.04 μM) [2, 16]: 1.231 | Complete Media [2, 17]: 1.191 | Difference [2, 18]: −0.04

CCCC(=O)Nc1ncnc2c1ncn2[C@@H]1O[C@@H]2COP(=O)(O)O[C@H]2[C@H]1OC(=O)CCC [Bucladesine (calcium)]
Difference [1, 24]: −0.13 | Cholesterol-free [1, 4]: 0.8949 | Complete [1, 5]: 0.7629 | Cholesterol-free media + simvastatin (0.04 μM) [2, 16]: 0.8302 | Complete Media [2, 17]: 0.804 | Difference [2, 18]: −0.03

CN1CC2c3ccccc3Oc3ccc(Cl)cc3C2C1 (stereo not drawn) [Asenapine (hydrochloride)]
Cholesterol-free [1, 13]: 1.288 | Complete [1, 14]: 1.388 | Difference [1, 15]: 0.10 | Cholesterol-free media + simvastatin (0.04 μM) [2, 19]: 1.244 | Complete Media [2, 20]: 1.302 | Difference [2, 12]: 0.06

CO[C@H]1C(=O)[C@]2(C)[C@@H](OC)C[C@H]3OC[C@@]3(OC(C)=O)[C@H]2[C@H](OC(=O)c2ccccc2)[C@]2(O)C[C@H](OC(=O)[C@H](O)[C@@H](NC(=O)OC(C)(C)C)c3ccccc3)C(C)=C1C2(C)C [Cabazitaxel]
Difference [1, 9]: −0.01 | Cholesterol-free [1, 13]: 0.2044 | Complete [1, 14]: 0.198 | Cholesterol-free media + simvastatin (0.04 μM) [2, 16]: 0.364 | Complete Media [2, 17]: 0.3065 | Difference [2, 18]: −0.06

CCN(CC)C(=O)C1(c2ccccc2)CC1CN.Cl (stereo not drawn) [Milnacipran ((1S-cis)hydrochloride)]
Difference [1, 3]: −0.18 | Cholesterol-free [1, 4]: 1.07 | Complete [1, 5]: 0.894

Escin
Difference [1, 3]: −0.22 | Cholesterol-free [1, 10]: 1.276

Dihydroergotoxine (mesylate)
Cholesterol-free media + simvastatin (0.04 μM) [2, 16]: 0.9089 | Complete Media [2, 17]: 0.9065 | Difference ([2]; complete media minus cholesterol-free media + simvastatin (0.04 μM), […]): 0.00

CC(C)Cc1ccc([C@@H](C)C(=O)O)cc1 [(R)-(−)-Ibuprofen]
Difference [2, 18]: 0.01

CC(C)Cc1ccc([C@@H](C)C(=O)O)cc1 [(R)-(—)-Ibuprofen]
Difference [1, 25]: −0.96 | Cholesterol-free ([1]; NCI-H292 cells in cholesterol-free media without statin): 1.742 | Complete [1, 26]: 0.7774

NS(=O)(=O)c1cc(C(=O)O)c(NCc2ccco2)cc1Cl [Furosemide (sodium)]
Cholesterol-free media + simvastatin (0.04 μM) [2, 16]: 1.074 | Complete Media [2, 17]: 1.02 | Difference [2, 18]: −0.05

CCN(CC)C(=O)C1(c2ccccc2)CC1CN.Cl (stereo not drawn) [Milnacipran ((1S-cis) hydrochloride)]
Cholesterol-free media + simvastatin (0.04 μM) [2, 11]: 0.9487 | Complete Media [2, 5]: 0.8731 | Difference [2, 8]: −0.08

NS(=O)(=O)c1cc(C(=O)O)c(NCc2ccco2)cc1Cl [Furosemide]
Cholesterol-free media + simvastatin (0.04 μM) [2, 6]: 1.11 | Complete Media [2, 7]: 0.894 | Difference [2, 23]: −0.22

γ-Oryzanol
Complete Media [2, 5]: 1.39 | Difference ([2]; complete media minus cholesterol-free media + simvastatin, […]): 0.24
